{
  "source": "patent US11564947B2",
  "about": "“Methods and compositions for cellular immunotherapy” (eFFECTOR Therapeutics, Inc., priority 2017, dated 2023)",
  "key": {"[1]": {"tested_on": "OT-I memory T cells (CD45.2+CD8+CD44+) in spleen", "experiment": "Long-term memory/recall response after adoptive transfer of OT-I T cells", "assay_type": "in vivo, B6.SJL mice", "experimental": "Spleens were isolated from OT-I mice and CD3^+ T cells were isolated using the MojoSort Mouse CD3 T Cell Isolation Kit (Biolegend, San Diego Calif.). OT-I T cells (2×10^6 cells) were adoptively transferred into B6.SJL mice through intravenous tail vein injection. Mice were dosed orally with vehicle or 1 mg/kg Compound 107 24 hrs later and vaccinated subcutaneously with SIINFEKL peptide (SEQ ID NO:1) (50 μg/mouse). Mice were dosed with vehicle or 1 mg/kg Compound 107 for an additional six days. On day 21 post-immunization, selected groups were boosted with an additional injection of SIINFEKL peptide (SEQ ID NO:1) (50 μg/mouse). On day 24, spleens were harvested from animals and processed into a single cell suspension for flow cytometry analysis. Cells were stained with BD Horizon Fixable Viability Stain and antibodies against CD45.2, CD8, and CD44. Cells were analyzed using an Attune NXT flow cytometer and data was processed using FlowJo 10.1 software."}, "CD8+ T cells [2]": {"tested_on": "CD8+ T cells", "experiment": "T cell memory formation, mixed lymphocyte reaction (MLR) assay, CD8+ cells", "assay_type": "cell-based, mouse", "experimental": "(§1) Spleens were isolated from OT-I and processed into a single cell suspension. Red blood cells (RBCs) were lysed using RBC lysis solution. Splenocytes (2×10^6 cells/ml) were cultured in complete media (10% FBS in DMEM) and stimulated with 5 μg/ml OVA MHC class I epitope peptide (SIINFEKL, SEQ ID NO:1) in the absence or presence of 0.01 μM, 0.1 μM, 1.0 μM, 3.0 μM, or 10 μM of MNK-specific inhibitor, Compound 107, for 48 hrs. For the mixed lymphocyte reaction (MLR) assay, peritoneal macrophages were first isolated from BALB/c mice by peritoneal wash with chilled DMEM media. This lavage was plated in a 24 well plate for 2 h at 37° C. After 2 h, non-adherent cells were washed to remove non-macrophage populations. The adherent cells (primarily peritoneal macrophages) were cultured in complete media in the absence or presence of the indicated Compound 107 concentrations for 24 h. After 24 h, panned splenocytes (enriched in T cells) from C57BL/6 mice were added to the macrophage culture in the absence or presence of Compound 107 for an additional 4 days.\n(§2) The cells were harvested from the MLR, washed and stained with Horizon™ FVS, anti-CD4, anti-CD8, anti-CD44 and anti-CD62L antibodies. The cells were analyzed by flow cytometry (Attune NXT, ThermoFisher) and FlowJo analysis software (FlowJo LLC, Ashland Oreg.). CD8+ and CD4+ cells populations were analyzed for expression of CD44 and CD62L. […]"}, "CD4+ T cells": {"tested_on": "CD4+ T cells", "experiment": "T cell memory formation, mixed lymphocyte reaction (MLR) assay, CD4+ cells", "assay_type": "cell-based, mouse", "details": "MLR in presence of Compound 107", "experimental": "as §1, §2"}, "CD8+ T cells [3]": {"tested_on": "CD8+ T cells", "experiment": "T cell memory formation, OVA MHC class I epitope peptide (SIINFEKL) stimulation of OT-I splenocytes", "assay_type": "cell-based, mouse", "details": "5 μg/ml SIINFEKL peptide plus Compound 107 0.01-10 μM, 48 hrs, peptide alone 32%", "experimental": "as §1, §2"}, "E.G7-OVA tumors": {"tested_on": "E.G7-OVA tumors", "experiment": "In vivo tumor growth inhibition", "design": "species or system athymic nude mice", "experimental": "E.G7-OVA tumor cells (2×10^6) were implanted subcutaneously into athymic nude mice. On day 7 post-implant, tumors were measured (˜192 mm^3) and tumor-bearing animals were randomized into 6 groups. T cells purified from OT-I mouse spleens were cultured for 48 h in vitro with DMSO/PBS control alone, 50 μg/ml SIINFEKL peptide (SEQ ID NO:1) alone, 1 μM Compound 107, or the combination of 50 μg/ml SIINFEKL (SEQ ID NO:1) and 1 μM Compound 107. The in vitro treated OT-I T cells were adoptively transferred into animals from the appropriate groups (2×10^6 cells/mouse) by tail vein injection. Animals were dosed in vivo with vehicle or 1 mg/kg Compound 107 and tumor size and body weight was monitored during the course of the study."}},
  "data": [
    {"smiles": "Cc1cc(Nc2cc(N)ncn2)c(=O)n2c1C(=O)NC21CCCCC1.Cl", "note": "[Compound 107]", "values": [
      {"measurement": "percentage of OT-I memory T cells in spleen (% of total lymphocytes)", "setting": "[1]; immunized and boosted with SIINFEKL, 1 mg/kg oral during immunization, day 24, vs vehicle-treated immunized/boosted group", "value": "significantly increased"},
      {"measurement": "population of OT-I memory T cells in spleen (% of total lymphocytes)", "setting": "[1]; un-immunized animals, 1 mg/kg oral, day 24", "value": "unaffected"},
      {"measurement": "pool of TCM CD8+ T cells", "setting": "CD8+ T cells [2]; MLR in presence of Compound 107, MLR alone 15%", "value": "20-29%"},
      {"measurement": "TEM pool of CD8+ T cells", "setting": "CD8+ T cells [2]; MLR, 0.01-3 μM of Compound 107, MLR alone 16%", "value": "8-11%"},
      {"measurement": "pool of TCM CD4+ T cells", "setting": "CD4+ T cells; MLR alone 21%", "value": "28-39%"},
      {"measurement": "TEM CD4+ T cell pool", "setting": "CD4+ T cells; MLR alone 25%", "value": "16-23%"},
      {"measurement": "distribution of CD8+ T cells in the TCM pool (CD44high CD62Lhigh)", "setting": "CD8+ T cells [3]", "value": "36-41%"},
      {"measurement": "tumor growth inhibition (TGI)", "setting": "E.G7-OVA tumors; OT-I cells pre-treated in vitro with SIINFEKL and Compound 107, animals also dosed in vivo with 1 mg/kg Compound 107, compared with the vehicle-dosed group (55%)", "value": "did not show any further increase in TGI"},
      {"measurement": "tumor growth inhibition (TGI)", "setting": "E.G7-OVA tumors; adoptive transfer of SIINFEKL-pre-treated OT-I cells, animals dosed 1 mg/kg Compound 107 daily, 8 days post-transfer", "value": 45, "unit": "%"},
      {"measurement": "tumor growth inhibition (TGI)", "setting": "E.G7-OVA tumors; no adoptive transfer of OT-I T cells, 1 mg/kg Compound 107 daily vs vehicle, 8 days post-transfer", "value": 16, "unit": "%"},
      {"measurement": "tumor growth inhibition (TGI)", "setting": "E.G7-OVA tumors; vehicle-dosed animals, OT-I cells pre-treated in vitro with SIINFEKL and 1 μM Compound 107, 8 days post-transfer", "value": 55, "unit": "%"}
    ]}
  ]
}
